According to PubChem BioAssay (NCI):
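Dose response: 5 concentrations. Exposure: 48 h. Format: 96-well plates. Endpoint: linear interpolation; highest concentration if not reached. The concentration for 50% growth inhibition is given as GI50. TGI marks complete inhibition of growth.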

Assays:
Assay in all cases: DTP human tumour cell line panel, 48 h
KM12 colon = test system: KM12 colon
SN12C renal = test system: SN12C renal
CAKI-1 renal = test system: CAKI-1 renal
COLO 205 colon = test system: COLO 205 colon
MOLT-4 leukemia = test system: MOLT-4 leukemia
HT29 colon = test system: HT29 colon
MDA-MB-231 breast = test system: MDA-MB-231 breast
OVCAR-8 ovarian = test system: OVCAR-8 ovarian
OVCAR-5 ovarian = test system: OVCAR-5 ovarian
DU-145 prostate = test system: DU-145 prostate
CCRF-CEM leukemia = test system: CCRF-CEM leukemia
HCT-15 colon = test system: HCT-15 colon
EKVX NSCLC = test system: EKVX NSCLC
LOX IMVI melanoma = test system: LOX IMVI melanoma
SK-OV-3 ovarian = test system: SK-OV-3 ovarian
M14 melanoma = test system: M14 melanoma
PC-3 prostate = test system: PC-3 prostate
MALME-3M melanoma = test system: MALME-3M melanoma
IGROV1 ovarian = test system: IGROV1 ovarian
NCI-H460 lung = test system: NCI-H460 lung
BT-549 breast = test system: BT-549 breast
786-0 renal = test system: 786-0 renal
SF-295 CNS = test system: SF-295 CNS
NCI/ADR-RES ovarian = test system: NCI/ADR-RES ovarian
OVCAR-4 ovarian = test system: OVCAR-4 ovarian
SF-539 CNS = test system: SF-539 CNS
HOP-62 NSCLC = test system: HOP-62 NSCLC
U251 CNS = test system: U251 CNS
RXF 393 renal = test system: RXF 393 renal
OVCAR-3 ovarian = test system: OVCAR-3 ovarian
SK-MEL-2 melanoma = test system: SK-MEL-2 melanoma
K-562 leukemia = test system: K-562 leukemia
SR leukemia = test system: SR leukemia
T-47D breast = test system: T-47D breast
SNB-19 CNS = test system: SNB-19 CNS
HS 578T breast = test system: HS 578T breast
NCI-H522 lung = test system: NCI-H522 lung
A549 NSCLC = test system: A549 NSCLC
MCF7 breast = test system: MCF7 breast
HCC-2998 colon = test system: HCC-2998 colon
UACC-62 melanoma = test system: UACC-62 melanoma
TK-10 renal = test system: TK-10 renal
SK-MEL-5 melanoma = test system: SK-MEL-5 melanoma
HL-60(TB) leukemia = test system: HL-60(TB) leukemia
NCI-H23 lung = test system: NCI-H23 lung
HOP-92 NSCLC = test system: HOP-92 NSCLC
SW-620 colon = test system: SW-620 colon
UACC-257 melanoma = test system: UACC-257 melanoma
ACHN renal = test system: ACHN renal
SK-MEL-28 melanoma = test system: SK-MEL-28 melanoma
UO-31 renal = test system: UO-31 renal
RPMI-8226 leukemia = test system: RPMI-8226 leukemia
HCT-116 colon = test system: HCT-116 colon
SF-268 CNS = test system: SF-268 CNS
MDA-MB-435 = test system: MDA-MB-435
A498 renal = test system: A498 renal

Compound: O=C1Nc2ccccc2C1(c1c[nH]c2ccccc12)c1c[nH]c2ccccc12
- GI50 (KM12 colon): 2.3 µM
- TGI (KM12 colon): 5.96 µM
- GI50 (SN12C renal): 1.89 µM
- TGI (SN12C renal): 4.29 µM
- GI50 (CAKI-1 renal): 1.85 µM
- TGI (CAKI-1 renal): 4.37 µM
- GI50 (COLO 205 colon): 1.93 µM
- TGI (COLO 205 colon): 3.86 µM
- GI50 (MOLT-4 leukemia): 3.77 µM
- TGI (MOLT-4 leukemia): 28.9 µM
- GI50 (HT29 colon): 3.23 µM
- TGI (HT29 colon): 11.4 µM
- GI50 (MDA-MB-231 breast): 2.3 µM
- TGI (MDA-MB-231 breast): 5.96 µM
- GI50 (OVCAR-8 ovarian): 2.15 µM
- TGI (OVCAR-8 ovarian): 5.18 µM
- GI50 (OVCAR-5 ovarian): 2.52 µM
- TGI (OVCAR-5 ovarian): 7.6 µM
- GI50 (DU-145 prostate): 2.09 µM
- TGI (DU-145 prostate): 4.2 µM
- GI50 (CCRF-CEM leukemia): 4.43 µM
- TGI (CCRF-CEM leukemia): 45.8 µM
- GI50 (HCT-15 colon): 2.57 µM
- TGI (HCT-15 colon): 7.69 µM
- GI50 (EKVX NSCLC): 1.7 µM
- TGI (EKVX NSCLC): 3.84 µM
- GI50 (LOX IMVI melanoma): 1.7 µM
- TGI (LOX IMVI melanoma): 3.32 µM
- GI50 (SK-OV-3 ovarian): 2.72 µM
- TGI (SK-OV-3 ovarian): 7.74 µM
- GI50 (M14 melanoma): 2.39 µM
- TGI (M14 melanoma): 7.17 µM
- GI50 (PC-3 prostate): 2.05 µM
- TGI (PC-3 prostate): 5.75 µM
- GI50 (MALME-3M melanoma): 2.47 µM
- TGI (MALME-3M melanoma): 6.93 µM
- GI50 (IGROV1 ovarian): 2.04 µM
- TGI (IGROV1 ovarian): 5.09 µM
- GI50 (NCI-H460 lung): 2.84 µM
- TGI (NCI-H460 lung): 8.21 µM
- GI50 (BT-549 breast): 2.06 µM
- TGI (BT-549 breast): 4.68 µM
- GI50 (786-0 renal): 2.01 µM
- TGI (786-0 renal): 4.11 µM
- GI50 (SF-295 CNS): 2.02 µM
- TGI (SF-295 CNS): 4.7 µM
- GI50 (NCI/ADR-RES ovarian): 2.15 µM
- TGI (NCI/ADR-RES ovarian): 5.03 µM
- GI50 (OVCAR-4 ovarian): 2.48 µM
- TGI (OVCAR-4 ovarian): 7.45 µM
- GI50 (SF-539 CNS): 2.07 µM
- TGI (SF-539 CNS): 4.31 µM
- GI50 (HOP-62 NSCLC): 1.93 µM
- TGI (HOP-62 NSCLC): 4.95 µM
- GI50 (U251 CNS): 2.69 µM
- TGI (U251 CNS): 7.49 µM
- GI50 (RXF 393 renal): 1.94 µM
- TGI (RXF 393 renal): 3.76 µM
- GI50 (OVCAR-3 ovarian): 2.14 µM
- TGI (OVCAR-3 ovarian): 4.84 µM
- GI50 (SK-MEL-2 melanoma): 2.08 µM
- TGI (SK-MEL-2 melanoma): 4.51 µM
- GI50 (K-562 leukemia): 3.94 µM
- TGI (K-562 leukemia): > 100 µM
- GI50 (SR leukemia): 4 µM
- TGI (SR leukemia): > 100 µM
- GI50 (T-47D breast): 1.99 µM
- TGI (T-47D breast): 4.69 µM
- GI50 (SNB-19 CNS): 2.73 µM
- TGI (SNB-19 CNS): 8.35 µM
- GI50 (HS 578T breast): 2.05 µM
- TGI (HS 578T breast): 5.16 µM
- GI50 (NCI-H522 lung): 2.01 µM
- TGI (NCI-H522 lung): 4.71 µM
- GI50 (A549 NSCLC): 2.18 µM
- TGI (A549 NSCLC): 5.31 µM
- GI50 (MCF7 breast): 2.06 µM
- TGI (MCF7 breast): 4.74 µM
- GI50 (HCC-2998 colon): 1.82 µM
- TGI (HCC-2998 colon): 3.75 µM
- GI50 (UACC-62 melanoma): 1.96 µM
- TGI (UACC-62 melanoma): 5.09 µM
- GI50 (TK-10 renal): 2.31 µM
- TGI (TK-10 renal): 5.41 µM
- GI50 (SK-MEL-5 melanoma): 2.18 µM
- TGI (SK-MEL-5 melanoma): 4.81 µM
- GI50 (HL-60(TB) leukemia): 3.72 µM
- TGI (HL-60(TB) leukemia): 37.6 µM
- GI50 (NCI-H23 lung): 2.08 µM
- TGI (NCI-H23 lung): 4.48 µM
- GI50 (HOP-92 NSCLC): 1.87 µM
- TGI (HOP-92 NSCLC): 4.95 µM
- GI50 (SW-620 colon): 3.22 µM
- TGI (SW-620 colon): 13.1 µM
- GI50 (UACC-257 melanoma): 3.67 µM
- TGI (UACC-257 melanoma): 16.6 µM
- GI50 (ACHN renal): 1.82 µM
- TGI (ACHN renal): 3.58 µM
- GI50 (SK-MEL-28 melanoma): 5.7 µM
- TGI (SK-MEL-28 melanoma): 20 µM
- GI50 (UO-31 renal): 1.18 µM
- TGI (UO-31 renal): 3.04 µM
- GI50 (RPMI-8226 leukemia): 4.25 µM
- TGI (RPMI-8226 leukemia): 38.5 µM
- GI50 (HCT-116 colon): 2.48 µM
- TGI (HCT-116 colon): 6.29 µM
- GI50 (SF-268 CNS): 2.8 µM
- TGI (SF-268 CNS): 13.9 µM
- GI50 (MDA-MB-435): 3.34 µM
- TGI (MDA-MB-435): 11.7 µM
- GI50 (A498 renal): 1.81 µM
- TGI (A498 renal): 3.63 µM
